Measurements taken from patent US8337792B2, “Aromatic imine compounds for use as sulfide scavengers” (priority 2007, dated 2012).

Assays:
[1] = Comparison with conventional treatments against H2S dissolved in water (Table 2); settings: 1,000 ppm H2S in water; for Lead acetate paper test, Head space / Lead acetate paper test, Liquid: paper colour
Source text: (§1) An overall comparison of the features of the present aromatic imine compounds and conventional compositions is shown in Table 3.

[2] = Comparison of features, performance and handling (Table 3)
Source text: as §1

[3] = Solubility in water, oil, fuel and solvents; format: physicochemical
[4] = Comparison of features, safety and hazard (Table 3)
Source text: as §1

Row | SMILES | Residual H2S, I2 Titration [1] [ppm] | Residual H2S, Outside Lab [1] [ppm] | Lead acetate paper test, Head space [1] | Lead acetate paper test, Liquid [1] | Deodorizes [2] | Stable [2] | Strong bonding to H2S [2] | Reactivity* ([2]; 1 is highest) | Reactive at ambient temperature ([2]; ambient temperature) | Oil Solubility [3] | Carcinogenicity [4] | Mutagenicity [4] | RCRA Hazardous Waste [4] | Safe to use [4] | Sensitizing chemical [4] | Toxicity [4] | Formaldehyde ([4]; formaldehyde in the product) [ppm]
1 | OCCN1CN(CCO)CN(CCO)C1 [Triazine] | 660 | 728 | yellow/ | brown | – | – | – | – | – | – | – | – | – | – | – | – | –
2 | O=CC=O [Glyoxal] | 350 | 240 | brown/ | yellow/ | no | no | no | 1 | yes | no | yes | yes | yes | some | yes | no | 100
